Tests used:
[1] = test system: PBMCs (monocyte TNF-α production); assay type: cell-based, human
[2] = test system: diluted whole blood (T cell IFN-γ production); test: Whole blood ELISpot, CD3/CD28-stimulated IFN-γ production (Example 2); assay type: cell-based, human
Experimental: Innate and adaptive immune function was assessed using ELISpot analysis by measurement of the production of IFN-γ and TNF-α in ex vivo-stimulated cells following overnight culture. Capture Ab precoated 96-well polyvinylidene difluoride-backed strip plates were used for single color enzymatic assays (ImmunoSpot; Cellular Technology [CTL], Cleveland, Ohio) for detection of human IFN-γ and TNF-α. ELISpot culture procedure was followed as directed using instructions from the ELISpot kit. Samples were run in duplicate for each test condition. Plates were prepared with stimulant and were incubated at 37° C. and 5% CO2 for 30 min prior to plating cells. Identical conditions were prepared for comparison of whole blood assay to PBMC assay, and culture media alone was used as a negative control. Combination of 500 ng/ml of anti-CD3 (clone HIT3a; BioLegend) with 2.5 μg/ml of anti-CD28 (clone CD28.2; BioLegend) Abs were used to induce IFN-γ, and 2.5 ng/ml LPS (from Salmonella abortus equi S-form, ALX-581-009; Enzo Life Sciences, Farmingdale, N.Y.) was used to induce TNF-α wells. Total well volume for all samples was 200 μl. PBMCs were plated into wells in quantities of 2.5×10^4 cells per well for IFN-γ and 2.5×10^3 cells per well for TNF-α. The relevant volume for 5×10^4 leukocytes of diluted whole blood (in culture media) was plated in each well based on complete blood counts performed in the clinical research core laboratory at Washington University. PBMCs and diluted whole blood were costimulated with and without recombinant human IL-7 (Escherichia coli-derived protein, product no. 207-IL; R&D Systems, Minneapolis, Minn.). ELISpot assays were incubated overnight for 18-22 h at 37° C. and 5% CO2 as previously described (29). […]
(§1) Samples were scanned, analyzed, and quality controlled for spot count, spot area, and TWI using a Cellular Technology series 6 ImmunoSpot Universal Analyzer with ImmunoSpot 7.0 professional software (Cellular Technology Analyzers, Shaker Heights, Ohio). […]
(§2) The number of cytokine-secreting cells present in each ELISpot well is referred to as spot-forming units (SFU) and is reported in two distinct ways. […] The number of lymphocytes in each well was determined based upon the absolute lymphocyte count as measured by the patients' complete blood count. For ELISpot studies involving PBMCs, flow cytometry was performed on the PBMC fraction, and the number of lymphocytes, monocytes, and residual neutrophils were determined. […] Samples were acquired on FACScan (Becton Dickenson, Franklin Lakes, N.J.) with a five-color modification (CyTek Biosciences, Fremont, Calif.) and analyzed using FlowJo 10.2 (FlowJo, Ashland, Oreg.) as previously described (28). […]

[3] = test system: diluted whole blood (myeloid cell TNF-α production); test: Whole blood ELISpot, LPS-stimulated TNF-α production (Example 2); assay type: cell-based, human
Experimental: Innate and adaptive immune function was assessed using ELISpot analysis by measurement of the production of IFN-γ and TNF-α in ex vivo-stimulated cells following overnight culture. Capture Ab precoated 96-well polyvinylidene difluoride-backed strip plates were used for single color enzymatic assays (ImmunoSpot; Cellular Technology [CTL], Cleveland, Ohio) for detection of human IFN-γ and TNF-α. ELISpot culture procedure was followed as directed using instructions from the ELISpot kit. Samples were run in duplicate for each test condition. Plates were prepared with stimulant and were incubated at 37° C. and 5% CO2 for 30 min prior to plating cells. Identical conditions were prepared for comparison of whole blood assay to PBMC assay, and culture media alone was used as a negative control. […] PBMCs were plated into wells in quantities of 2.5×10^4 cells per well for IFN-γ and 2.5×10^3 cells per well for TNF-α. […]
as §1, §2

[4] = test system: T cells (IFN-γ production); test: IFN-γ ELISPOT on patient PBMCs before and during IL-7 therapy (Example 3); assay type: in vivo, human; conditions: anti-CD3/anti-CD28 ex vivo stimulation, before vs during IL-7 therapy
Experimental: The effect of IL-7 in terms of improving the patient's T cell function was evaluated by an ex vivo stimulation assay using anti-CD3 and anti-CD28 antibodies (BioLegend, San Diego, Calif., USA) on an IFN-γ ELISPOT assay (Cellular Technologies Limited, Shaker Heights, Ohio, USA), which was performed as previously described.

[5] = test system: pSTAT5 in CD4 and CD8 T cells; test: Mass cytometry (CyTOF) of intracellular phospho-STAT5 in T cells; assay type: in vivo, human
Description: To measure the specific molecular effects underlying the increased T cell responsiveness induced by IL-7, we measured intracellular levels of phospho-STATS (pSTAT5) in CD4 and CD8 T cells using mass cytometry. STATS is the primary T cell differentiation signal downstream of the IL-7 receptor [12]. T cells were identified based on surface marker staining (CD45+/CD15−/CD66b−/CD56−/CD3+). We then measured the pSTAT5 signal intensity. IL-7 was associated with a 3-fold increase in activated STATS in CD4-T cells and a 2-fold increase in CD8-T cells (FIG. 28C).

[6] = test system: PBMCs (T cell IFN-γ production); test: ELISpot, CD3/CD28-stimulated IFN-γ in patient PBMCs before and after IL-7 therapy (Example 5); assay type: in vivo, human; conditions: concomitant with initiation of IL-7 treatment
[7] = Serial plasma cytokines, ProcartaPlex 9-plex Luminex panel (Example 5); assay type: in vivo, human; conditions: plasma of critically ill COVID-19 patient
fungal sepsis = conditions: in vivo; cited from earlier work

Q: Which results are given for “IL-7: recombinant human IL-7, immunoadjuvant and potent T cell activator; R&D Systems ex vivo, RevImmune for patients”?
A: mean increase in LPS-induced TNF-α-producing cells after IL-7 coincubation ([1]; COVID-19 patient PBMCs, LPS + IL-7, not statistically significant): 101%; effect of IL-7 on monocyte TNF-α production ([1]; COVID-19 patients, LPS vs LPS + IL-7, n=25): did not increase; effect of IL-7 on IFN-γ SFUs ([2]; healthy subjects and CINS patients): significantly increased; increase in IFN-γ spot numbers with IL-7 ([2]; sepsis nonsurvivors): 312%±240; increase in IFN-γ spot numbers with IL-7 ([2]; sepsis survivors): 102%±32; increase in the number of IFN-γ spots when stimulated with IL-7 ([2]; septic patients overall (n=19), CD3/CD28 + IL-7, p<0.005): 172%±77; change in TNF-α SFUs with IL-7 ([3]; CINS): no change; change in TNF-α SFUs with IL-7 ([3]; healthy subjects, p<0.01): significant decrease; effect of IL-7 on the number of TNF-α-producing cells ([3]; septic patients, LPS + IL-7): does not increase; increase in the proportion of activated, IFN-γ-producing T cells from baseline [4]: 1.4 fold; increase in activated STAT5 (pSTAT5 signal intensity) ([5]; CD4-T cells): 3 fold; increase in activated STAT5 (pSTAT5 signal intensity) ([5]; CD8-T cells): 2 fold; STAT5 expression in lymphocytes after initiation of IL-7 compared with pretreatment ([5]; CyTOF, geometric mean raw signal intensity): doubling; increase in the number of IFN-γ-producing T cells [6]: multifold increases; IFN-γ plasma concentration ([7]; Post IL-7, Day 12): Undetectable; IL-1β plasma concentration ([7]; Post IL-7, Day 12): Undetectable; IL-2 plasma concentration ([7]; Post IL-7, Day 12): Undetectable; IL-6 plasma concentration ([7]; Post IL-7, Day 12): 30 pg/mL; IL-10 plasma concentration ([7]; Post IL-7, Day 12): 2.71 pg/mL; IL-12 plasma concentration ([7]; Post IL-7, Day 12): Undetectable; IL-17 plasma concentration ([7]; Post IL-7, Day 12): 0.14 pg/mL; Tumor necrosis factor-α plasma concentration ([7]; Post IL-7, Day 12): Undetectable; IFN-γ plasma concentration ([7]; Post IL-7, Day 21): Undetectable; IL-1β plasma concentration ([7]; Post IL-7, Day 21): Undetectable; IL-2 plasma concentration ([7]; Post IL-7, Day 21): Undetectable; IL-6 plasma concentration ([7]; Post IL-7, Day 21): 6 pg/mL; IL-10 plasma concentration ([7]; Post IL-7, Day 21): 0.83 pg/mL; IL-12 plasma concentration ([7]; Post IL-7, Day 21): Undetectable; IL-17 plasma concentration ([7]; Post IL-7, Day 21): 0.12 pg/mL; Tumor necrosis factor-α plasma concentration ([7]; Post IL-7, Day 21): Undetectable; increase of absolute lymphocyte count (ALC) (SARS-CoV-2; COVID-19 patient after IL-7): ~10 fold; discharged home, day of hospitalization (SARS-CoV-2; after IL-7 therapy): 24 days; mechanical ventilation discontinued, day after ICU admission (SARS-CoV-2; after initiation of IL-7 therapy): 15 days; survival in a 2-hit animal model of fungal sepsis (fungal sepsis): increase survival

Reference: patent US20220091133A1, “METHODS AND ASSAYS FOR IMMUNE PHENOTYPING” (Washington University, priority 2020, published 2022)
